Tests used:
[1] = Antagonist activity against human CXCR3 expressed in human PBMC assessed as inhibition of cell migration in response to ITAC in plasma
[2] = Antagonist activity against human CXCR3 expressed in human PBMC assessed as inhibition of cell migration in response to MIG in buffer
[3] = Antagonist activity against human CXCR3 expressed in human PBMC assessed as inhibition of cell migration in response to IP10 in buffer
[4] = Antagonist activity against human CXCR3 expressed in human PBMC assessed as inhibition of cell migration in response to ITAC in RPMI buffer

IC50 [1] [nM]	SMILES	further results
15	CCS(=O)(=O)CCN(C(=O)Cc1ccc(F)c(C(F)(F)F)c1)[C@H](C)c1nc2ncccc2c(=O)n1-c1ccc(OCC(F)(F)F)cc1 [(R)-N-(2-(ethylsulfonyl)ethyl)-2-(4-fluoro-3-(trifluoromethyl)phenyl)-N-(1-(4-oxo-3-(4-(2,2,2-trifluoroethoxy)phenyl)-3,4-dihydropyrido[2,3-d]pyrimidin-2-yl)ethyl)acetamide]	IC50 [2]: 0.6 nM; IC50 [3]: 0.4 nM; IC50 [4]: 0.8 nM
20	CCOc1ccc(-n2c([C@@H](C)N(Cc3cccnc3)C(=O)Cc3ccc(F)c(C(F)(F)F)c3)nc3ncccc3c2=O)cc1 [(R)-N-(1-(3-(4-ethoxyphenyl)-4-oxo-3,4-dihydropyrido[2,3-d]pyrimidin-2-yl)ethyl)-2-(4-fluoro-3-(trifluoromethyl)phenyl)-N-(pyridin-3-ylmethyl)acetamide]	
5	CCOc1ccc(-n2c([C@@H](C)N(C(=O)Cc3ccc(F)c(C(F)(F)F)c3)C3CCN(C(C)C)CC3)nc3ncccc3c2=O)cc1 [(R)-N-(1-(3-(4-ethoxyphenyl)-4-oxo-3,4-dihydropyrido[2,3-d]pyrimidin-2-yl)ethyl)-2-(4-fluoro-3-(trifluoromethyl)phenyl)-N-(1-isopropylpiperidin-4-yl)acetamide]	
131	CCOc1ccc(-n2c([C@@H](C)N(C(=O)Cc3ccc(F)c(C(F)(F)F)c3)C3CCN(C(C)=O)CC3)nc3ncccc3c2=O)cc1 [(R)-N-(1-acetylpiperidin-4-yl)-N-(1-(3-(4-ethoxyphenyl)-4-oxo-3,4-dihydropyrido[2,3-d]pyrimidin-2-yl)ethyl)-2-(4-fluoro-3-(trifluoromethyl)phenyl)acetamide]	
450	CCOc1ccc(-n2c([C@@H](C)N(Cc3cccnc3)C(=O)Cn3cnc(C(F)(F)F)c3)nc3ccccc3c2=O)cc1 [(R)-N-(1-(3-(4-ethoxyphenyl)-4-oxo-3,4-dihydroquinazolin-2-yl)ethyl)-N-(pyridin-3-ylmethyl)-2-(4-(trifluoromethyl)-1H-imidazol-1-yl)acetamide]	
20	CCOc1ccc(-n2c([C@@H](C)N(CC3CCN(C)CC3)C(=O)Cc3ccc(F)c(C(F)(F)F)c3)nc3ncccc3c2=O)cc1 [(R)-N-(1-(3-(4-ethoxyphenyl)-4-oxo-3,4-dihydropyrido[2,3-d]pyrimidin-2-yl)ethyl)-2-(4-fluoro-3-(trifluoromethyl)phenyl)-N-((1-methylpiperidin-4-yl)methyl)acetamide]	
17	CCOc1ccc(-n2c([C@@H](C)N(Cc3cccnc3)C(=O)Cc3cc(C(F)(F)F)cc(C(F)(F)F)c3)nc3ccccc3c2=O)cc1 [(R)-2-(3,5-bis(trifluoromethyl)phenyl)-N-(1-(3-(4-ethoxyphenyl)-4-oxo-3,4-dihydroquinazolin-2-yl)ethyl)-N-(pyridin-3-ylmethyl)acetamide]	
58	CCOc1ccc(-n2c([C@@H](C)N(Cc3ccc[n+]([O-])c3)C(=O)Cc3ccc(OC(F)(F)F)cc3)nc3ncccc3c2=O)cc1 [(R)-3-((N-(1-(3-(4-ethoxyphenyl)-4-oxo-3,4-dihydropyrido[2,3-d]pyrimidin-2-yl)ethyl)-2-(4-(trifluoromethoxy)phenyl)acetamido)methyl)pyridine 1-oxide]	
22	CCOc1ccc(-n2c([C@@H](C)N(CCS(=O)(=O)CC)C(=O)Cc3ccc(F)c(C(F)(F)F)c3)nc3ncccc3c2=O)cc1 [(R)-N-(1-(3-(4-ethoxyphenyl)-4-oxo-3,4-dihydropyrido[2,3-d]pyrimidin-2-yl)ethyl)-N-(2-(ethylsulfonyl)ethyl)-2-(4-fluoro-3-(trifluoromethyl)phenyl)acetamide]	
10	CCOc1ccc(-n2c([C@@H](C)N(C[C@H]3CCCN3C(C)C)C(=O)Cc3ccc(F)c(C(F)(F)F)c3)nc3ncccc3c2=O)cc1 [N-((R)-1-(3-(4-ethoxyphenyl)-4-oxo-3,4-dihydropyrido[2,3-d]pyrimidin-2-yl)ethyl)-2-(4-fluoro-3-(trifluoromethyl)phenyl)-N-(((R)-1-isopropylpyrrolidin-2-yl)methyl)acetamide]	
23	CCOc1ccc(-n2c([C@@H](C)N(Cc3cccnc3)C(=O)Cc3ccc(F)c(C(F)(F)F)c3)nc3cnccc3c2=O)cc1 [(R)-N-(1-(3-(4-ethoxyphenyl)-4-oxo-3,4-dihydropyrido[3,4-d]pyrimidin-2-yl)ethyl)-2-(4-fluoro-3-(trifluoromethyl)phenyl)-N-(pyridin-3-ylmethyl)acetamide]	
162	CCOc1ccc(-n2c([C@@H](C)N(C(=O)Cc3ccc(F)c(C(F)(F)F)c3)C3CCOCC3)nc3ncccc3c2=O)cc1 [(R)-N-(1-(3-(4-ethoxyphenyl)-4-oxo-3,4-dihydropyrido[2,3-d]pyrimidin-2-yl)ethyl)-2-(4-fluoro-3-(trifluoromethyl)phenyl)-N-(tetrahydro-2H-pyran-4-yl)acetamide]	
59	CCOc1ccc(-n2c([C@@H](C)N(Cc3cc(C)no3)C(=O)Cc3ccc(F)c(C(F)(F)F)c3)nc3ncccc3c2=O)cc1 [(R)-N-(1-(3-(4-ethoxyphenyl)-4-oxo-3,4-dihydropyrido[2,3-d]pyrimidin-2-yl)ethyl)-2-(4-fluoro-3-(trifluoromethyl)phenyl)-N-((3-methylisoxazol-5-yl)methyl)acetamide]	
80	CCOc1ccc(-n2c([C@@H](C)N(C[C@@H]3CCCN3C(C)C)C(=O)Cc3ccc(F)c(C(F)(F)F)c3)nc3ncccc3c2=O)cc1 [N-((R)-1-(3-(4-ethoxyphenyl)-4-oxo-3,4-dihydropyrido[2,3-d]pyrimidin-2-yl)ethyl)-2-(4-fluoro-3-(trifluoromethyl)phenyl)-N-(((S)-1-isopropylpyrrolidin-2-yl)methyl)acetamide]	
20	CCOc1ccc(-n2c([C@@H](C)N(C[C@H]3CCCN3)C(=O)Cc3ccc(F)c(C(F)(F)F)c3)nc3ncccc3c2=O)cc1 [N-((R)-1-(3-(4-ethoxyphenyl)-4-oxo-3,4-dihydropyrido[2,3-d]pyrimidin-2-yl)ethyl)-2-(4-fluoro-3-(trifluoromethyl)phenyl)-N-((R)-pyrrolidin-2-ylmethyl)acetamide]	
